Data from patent publication US20240261443A1, “COMPOUNDS AND COMPOSITIONS USEFUL AS RADIOTRACERS FOR IMAGING OF REACTIVE OXIDATIVE SPECIES” (Wake Forest University Health Sciences, priority 2019, published 2024).
pIC50: −log10 of the molar value.

Tests used:
SCC-61 cell line (HNSCC) = test: MTT cytotoxicity IC50 assay, SCC-61; assay type: cell-based, human; settings: Homo sapiens, SCC-61, MTT
Method: The cells were seeded at density 5×10^3 cells/well. After 24 h pre-incubation period, cells were treated with 0.01 mM to 2.0 mM of freshly prepared KS1 and KS2 along with ascorbate (n=3) for 48 h. 0.2% of DMSO served as vehicle control. After 48 h, the solutions were removed from all plates and MTT assays performed following the published protocols. IC50 values are presented as mean±SD from at least three independent experiments.
There is growing evidence for a therapeutic role of ascorbate against several cancers (Creagan et al., Failure of High-Dose Vitamin C (Ascorbic Acid) Therapy to Benefit Patients with Advanced Cancer. New England Journal of Medicine 1979, 301 (13), 687-690; Chen et al., Pharmacologic ascorbic acid concentrations selectively kill cancer cells: action as a pro-drug to deliver hydrogen peroxide to tissues. Proceedings of the National Academy of Sciences of the United States of America 2005, 102 (38), 13604-13609; Prasad et al., High Doses of Multiple Antioxidant Vitamins: Essential Ingredients in Improving the Efficacy of Standard Cancer Therapy. Journal of the American College of Nutrition 1999, 18 (1), 13-25). Pharmacologic doses of ascorbate (oral and/or intravenous) could increase the effectiveness of cancer chemotherapy in many solid cancer therapies (López-Lizaro, Dual role of hydrogen peroxide in cancer: Possible relevance to cancer chemoprevention and therapy. Cancer Letters 2007, 252 (1), 1-8; Li et al., New Developments and Novel Therapeutic Perspectives for Vitamin C. The Journal of Nutrition 2007, 137 (10), 2171-2184; Klimant et al., Intravenous vitamin C in the supportive care of cancer patients: a review and rational approach. Current Oncology 2018, 25 (2), 139-148. The primary objective of this experiment was to determine the cytotoxic effects of KS1 at pharmacological concentrations. Cancer cell lines were selected based on their high ROS implications. […] These cell lines have been studied extensively with ascorbic acid treatments (Schoenfeld et al., O(2)(·−) and H(2)O(2)-Mediated Disruption of Fe Metabolism Causes the Differential Susceptibility of NSCLC and GBM Cancer Cells to Pharmacological Ascorbate. Cancer Cell 2017, 31 (4), 487-500.e8; Chen et al., Modulators of Redox Metabolism in Head and Neck Cancer. Antioxidants & Redox Signaling 2017, 29 (16), 1660-1690; Khandrika et al., Oxidative stress in prostate cancer. Cancer Lett 2009, 282 (2), 125-136.

PC3 cells = test: [18F]KS1 in vitro cell uptake in PC3 cells, normoxic and hypoxic; assay type: cell-based, human
Method: ROS efficacy was evaluated in two tumor cell lines: (1)SCC-61 and rSCC-61 cells (HNSCC) (FIG. 5), and (2) PC3 (PCa) cell lines under normoxic and hypoxic conditions (FIG. 6) following previously published protocols by our group (Sai et al., Peptide-based PET imaging of the tumor restricted IL13RA2 biomarker. Oncotarget 2017, 5; Yamamoto et al., Correlation of 18F-FLT and 18F-FDG uptake on PET with Ki-67 immunohistochemistry in non-small cell lung cancer. European Journal of Nuclear Medicine and Molecular Imaging 2007, 34 (10), 1610-1616; Solingapuram Sai et al., Radiolabeling and initial biological evaluation of [18F]KBM-1 for imaging RAR-α receptors in neuroblastoma. Bioorganic & Medicinal Chemistry Letters 2017, 27 (6), 1425-1427). Several ROS blockers including fresh solution of non-radioactive compounds KS1, KS2, SOD (10 μM) in the cell media were added to the seeded tumor cells 1.0 h prior to radiotracer addition (n=6 per blocker). All the cells were then treated with [^18F]KS1 (2.0 μCi/well, UV mass=0.4 μg/mL and S.A=3100 mCi/μmol) and incubated for 60 min (n=6) at 37° C. All the cells (both with and without blockers) were washed and lysed with lysate buffer solution. Lysate samples from each well were collected for gamma counting.
Similarly, in another experiment, human PCa-PC3 cells were cultured under normoxic (˜21% O2) or hypoxic (1% O2) conditions for 48 h. Thereafter, similar to HNSCC cells (detailed above) all assay steps including blocker treatment, radiotracer addition, incubations, washings and lysis were carried out under normoxic or hypoxic conditions. All hypoxia experiments were performed in a hypoxia chamber (Biospherix X3 Xvivo system). Plates without radioactivity were used as controls. […] The counts per minute values of each well were normalized to the amount of radioactivity added to each well and was expressed as percent uptake relative to the control condition. The data were expressed as % ID/mg of protein present in each well.
To further test the specificity of [^18F]KS1 for ROS, radioactive uptake in PCa cells was tested under hypoxic conditions, as several studies have shown that hypoxic conditions promote ROS generation and oxidative stress (Kumar et al., Oxidative Stress Is Inherent in Prostate Cancer Cells and Is Required for Aggressive Phenotype. Cancer Research. 2008; 68:1777-85; Pinthus et al., Androgen Induces Adaptation to Oxidative Stress in Prostate Cancer: Implications for Treatment with Radiation Therapy. Neoplasia (New York, NY). 2007; 9:68-80; Cervellati et al., Hypoxia induces cell damage via oxidative stress in retinal epithelial cells. […] A reported hypoxia model of PCa cells was tested in which the uptake of [^18F]KS1 was evaluated in PC3 cells cultured under hypoxic conditions versus normoxic conditions.

| Compound | pIC50 (SCC-61 cell line (HNSCC); Example 7, 48 h) | pIC50 (SCC-61 cell line (HNSCC); Example 13) | uptake blocked by SOD (PC3 cells; PC3 cells) [%] | uptake blocked by nonradioactive KS1 (PC3 cells; PC3 cells) [%] | uptake increase with doxorubicin (PC3 cells; PC3 cells) [%] | radioactive uptake in PC3 under hypoxic conditions versus normoxic conditions (PC3 cells; hypoxic 1% O2 vs normoxic ~21% O2, 60 min) [fold] |
| --- | --- | --- | --- | --- | --- | --- |
| O=C1O/C(=C/CCl)C(O)=C1OCc1ccc(OCCF)cc1 [KS1, (E)-5-(2-chloroethylidene)-3-(4-(2-fluoroethoxy)benzyloxy)-4-hydroxyfuran-2(5H)-one] | 3.54 | 3.14 | – | – | – | – |
| O=C1O/C(=C/CCl)C(O)=C1OCc1ccc(OCC[18F])cc1 [[^18F]KS1] | – | – | ~48 | ~61 | ~15 | ~2 |
